Measurements as given in patent US12065436B2, “Cardiac sarcomere inhibitors” (Cytokinetics, Inc., priority 2018, dated 2024).

Target: bovine cardiac myofibrils (full-length cardiac myosin ATPase in the native sarcomere) (Bos taurus (Bovine), UniProt Q9BE39)
Experiment: Skinned bovine cardiac myofibril ATPase assay (PK/LDH-coupled)
Format: biochemical
Conditions: Ca2+ activating to 75% of maximal rate; for CDMF75 IC15: concentration giving 15% inhibition; for IC50: read-out: CDMF75 IC50
Procedure, shortened: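 Triton-skinned bovine left-ventricle myofibrils (1 mg/mL) in PM 12 buffer (12 mM PIPES, 2 mM MgCl2, pH 6.8) with 50 μM ATP, 0.6 mM EGTA and CaCl2 set for 50% or 75% activation. Steady-state ATPase inhibition followed by PK/LDH-coupled NADH oxidation at 340 nm.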

Chain of bovine cardiac myofibrils (full-length cardiac myosin ATPase in the native sarcomere) (Q9BE39 whole entry): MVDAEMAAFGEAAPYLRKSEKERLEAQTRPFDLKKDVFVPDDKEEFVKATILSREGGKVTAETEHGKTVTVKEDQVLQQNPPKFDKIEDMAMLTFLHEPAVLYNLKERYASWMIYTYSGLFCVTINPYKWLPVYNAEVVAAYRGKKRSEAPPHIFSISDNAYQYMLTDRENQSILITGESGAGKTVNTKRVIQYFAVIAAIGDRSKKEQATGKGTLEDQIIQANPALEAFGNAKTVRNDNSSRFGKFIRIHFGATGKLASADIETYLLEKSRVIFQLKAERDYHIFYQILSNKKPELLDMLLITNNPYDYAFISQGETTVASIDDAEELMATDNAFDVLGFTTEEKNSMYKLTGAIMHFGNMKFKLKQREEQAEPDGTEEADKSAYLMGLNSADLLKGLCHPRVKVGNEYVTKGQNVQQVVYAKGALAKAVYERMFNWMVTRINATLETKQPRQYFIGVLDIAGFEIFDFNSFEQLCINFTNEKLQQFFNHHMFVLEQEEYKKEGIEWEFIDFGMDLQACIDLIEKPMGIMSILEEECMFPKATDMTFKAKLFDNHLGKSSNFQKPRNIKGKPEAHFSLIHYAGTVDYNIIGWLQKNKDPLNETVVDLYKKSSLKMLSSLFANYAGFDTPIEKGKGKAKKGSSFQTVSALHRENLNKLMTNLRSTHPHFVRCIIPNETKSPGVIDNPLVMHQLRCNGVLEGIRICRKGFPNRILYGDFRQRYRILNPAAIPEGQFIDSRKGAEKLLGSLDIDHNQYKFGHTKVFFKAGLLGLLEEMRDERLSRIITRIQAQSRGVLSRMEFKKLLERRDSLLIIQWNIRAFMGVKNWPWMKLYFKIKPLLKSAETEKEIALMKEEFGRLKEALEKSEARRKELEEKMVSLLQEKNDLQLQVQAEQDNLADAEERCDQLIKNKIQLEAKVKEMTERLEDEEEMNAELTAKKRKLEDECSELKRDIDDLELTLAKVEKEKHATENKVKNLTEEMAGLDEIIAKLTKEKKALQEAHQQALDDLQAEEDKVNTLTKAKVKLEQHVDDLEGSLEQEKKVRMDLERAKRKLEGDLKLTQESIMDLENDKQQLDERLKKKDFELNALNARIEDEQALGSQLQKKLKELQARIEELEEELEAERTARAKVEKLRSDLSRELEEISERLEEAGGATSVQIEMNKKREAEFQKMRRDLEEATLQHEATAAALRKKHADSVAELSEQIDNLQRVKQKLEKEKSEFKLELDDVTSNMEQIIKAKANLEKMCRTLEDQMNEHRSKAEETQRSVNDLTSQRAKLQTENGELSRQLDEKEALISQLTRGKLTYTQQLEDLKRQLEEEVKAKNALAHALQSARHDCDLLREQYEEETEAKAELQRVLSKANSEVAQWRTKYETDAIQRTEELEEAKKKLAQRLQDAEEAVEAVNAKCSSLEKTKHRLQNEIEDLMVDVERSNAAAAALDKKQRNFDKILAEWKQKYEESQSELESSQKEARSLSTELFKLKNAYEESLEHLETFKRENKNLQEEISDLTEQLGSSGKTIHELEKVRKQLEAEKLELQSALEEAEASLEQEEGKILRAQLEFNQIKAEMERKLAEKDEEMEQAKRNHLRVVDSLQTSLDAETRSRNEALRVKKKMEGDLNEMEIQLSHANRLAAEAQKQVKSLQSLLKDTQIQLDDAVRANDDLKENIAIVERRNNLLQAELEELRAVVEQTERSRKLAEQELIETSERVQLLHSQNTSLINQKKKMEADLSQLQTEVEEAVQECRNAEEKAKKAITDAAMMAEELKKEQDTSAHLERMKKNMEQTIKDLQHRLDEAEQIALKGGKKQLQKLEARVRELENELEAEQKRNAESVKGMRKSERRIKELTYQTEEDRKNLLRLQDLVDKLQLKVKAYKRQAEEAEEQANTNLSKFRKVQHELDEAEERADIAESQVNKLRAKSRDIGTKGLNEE
Chain of bovine cardiac myofibrils (full-length cardiac myosin ATPase in the native sarcomere) (P85100 whole entry partner): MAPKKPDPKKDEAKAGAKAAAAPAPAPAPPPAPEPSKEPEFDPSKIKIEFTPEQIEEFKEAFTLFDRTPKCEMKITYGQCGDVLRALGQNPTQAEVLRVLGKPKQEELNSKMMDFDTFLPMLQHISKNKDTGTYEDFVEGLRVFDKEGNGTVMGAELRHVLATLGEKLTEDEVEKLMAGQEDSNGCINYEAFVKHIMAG
Chain of bovine cardiac myofibrils (full-length cardiac myosin ATPase in the native sarcomere) (Q3SZE5 whole entry partner): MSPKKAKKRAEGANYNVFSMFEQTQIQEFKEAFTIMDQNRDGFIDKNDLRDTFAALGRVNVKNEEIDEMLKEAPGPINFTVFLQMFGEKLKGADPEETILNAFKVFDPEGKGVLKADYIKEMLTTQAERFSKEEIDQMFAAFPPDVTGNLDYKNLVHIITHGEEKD

With `CCc1nc(-c2ccc3c(c2)CC[C@H]3NC(=O)c2nnc(C)s2)no1` [Compound 619, (R)-N-(5-(5-ethyl-1,2,4-oxadiazol-3-yl)-2,3-dihydro-1H-inden-1-yl)-5-methyl-1,3,4-thiadiazole-2-carboxamide] the “CDMF75 IC15” value was 600 nM and the IC50 was 2500 nM.
`CCc1nc(-c2ccc3c(c2)CC[C@H]3NC(=O)c2cc(Cl)no2)no1` [Compound 620, (R)-3-chloro-N-(5-(5-ethyl-1,2,4-oxadiazol-3-yl)-2,3-dihydro-1H-inden-1-yl)isoxazole-5-carboxamide] was tested, and the “CDMF75 IC15” value was 200 nM and the IC50 was 600 nM.
In the case of `CCc1nc(-c2ccc3c(c2)CC[C@H]3NC(=O)c2nnn(C)c2C)no1` [Compound 621, (R)-N-(5-(5-ethyl-1,2,4-oxadiazol-3-yl)-2,3-dihydro-1H-inden-1-yl)-1,5-dimethyl-1H-1,2,3-triazole-4-carboxamide], the “CDMF75 IC15” value is reported as 1600 nM and the IC50 is reported as 6100 nM.
`CCc1nc(-c2ccc3c(c2)CC[C@H]3NC(=O)c2ncoc2C)no1` [Compound 622, (R)-N-(5-(5-ethyl-1,2,4-oxadiazol-3-yl)-2,3-dihydro-1H-inden-1-yl)-5-methyloxazole-4-carboxamide] was tested, and the “CDMF75 IC15” value was 900 nM and the IC50 was 3600 nM.
For `CCc1nc(-c2ccc3c(c2)CC[C@H]3NC(=O)c2ccccn2)no1` [Compound 623, (R)-N-(5-(5-ethyl-1,2,4-oxadiazol-3-yl)-2,3-dihydro-1H-inden-1-yl)picolinamide], the “CDMF75 IC15” value was 400 nM and the IC50 was 1600 nM.
With `CCc1nc(-c2ccc3c(c2)CC[C@H]3NC(=O)c2cccnc2)no1` [Compound 624, (R)-N-(5-(5-ethyl-1,2,4-oxadiazol-3-yl)-2,3-dihydro-1H-inden-1-yl)nicotinamide] the “CDMF75 IC15” value was 400 nM and the IC50 was 1500 nM.
In the case of `CCc1nc(-c2ccc3c(c2)CC[C@H]3NC(=O)c2ccc(C)nc2)no1` [Compound 625, (R)-N-(5-(5-ethyl-1,2,4-oxadiazol-3-yl)-2,3-dihydro-1H-inden-1-yl)-6-methylnicotinamide], the “CDMF75 IC15” value is reported as 800 nM and the IC50 is reported as 3000 nM.
With `CCc1nc(-c2ccc3c(c2)CC[C@H]3NC(=O)c2cncc(C)c2)no1` [Compound 626, (R)-N-(5-(5-ethyl-1,2,4-oxadiazol-3-yl)-2,3-dihydro-1H-inden-1-yl)-5-methylnicotinamide] the “CDMF75 IC15” value was 500 nM and the IC50 was 1600 nM.
`CCc1nc(-c2ccc3c(c2)CC[C@H]3NC(=O)c2cnccc2C)no1` [Compound 627, (R)-N-(5-(5-ethyl-1,2,4-oxadiazol-3-yl)-2,3-dihydro-1H-inden-1-yl)-4-methylnicotinamide] was tested, and the “CDMF75 IC15” value was 3500 nM and the IC50 was 15000 nM.
In the case of `CCc1nc(-c2ccc3c(c2)CC[C@H]3NC(=O)c2ccncc2)no1` [Compound 628, (R)-N-(5-(5-ethyl-1,2,4-oxadiazol-3-yl)-2,3-dihydro-1H-inden-1-yl)isonicotinamide], the “CDMF75 IC15” value is reported as 300 nM and the IC50 is reported as 1000 nM.
`CCc1nc(-c2ccc3c(c2)CC[C@H]3NC(=O)c2ccncc2C)no1` [Compound 629, (R)-N-(5-(5-ethyl-1,2,4-oxadiazol-3-yl)-2,3-dihydro-1H-inden-1-yl)-3-methylisonicotinamide] was tested, and the “CDMF75 IC15” value was 2100 nM and the IC50 was 9400 nM.
With `CCc1nc(-c2ccc3c(c2)CC[C@H]3NC(=O)c2ccncn2)no1` [Compound 630, (R)-N-(5-(5-ethyl-1,2,4-oxadiazol-3-yl)-2,3-dihydro-1H-inden-1-yl)pyrimidine-4-carboxamide] the “CDMF75 IC15” value was 500 nM and the IC50 was 1800 nM.
`CCc1nc(-c2ccc3c(c2)CC[C@H]3NC(=O)c2cc(C)ncn2)no1` [Compound 631, (R)-N-(5-(5-ethyl-1,2,4-oxadiazol-3-yl)-2,3-dihydro-1H-inden-1-yl)-6-methylpyrimidine-4-carboxamide] was tested, and the “CDMF75 IC15” value was 500 nM and the IC50 was 1800 nM.
`CCc1nc(-c2ccc3c(c2)CC[C@H]3NC(=O)c2ccnnc2)no1` [Compound 632, (R)-N-(5-(5-ethyl-1,2,4-oxadiazol-3-yl)-2,3-dihydro-1H-inden-1-yl)pyridazine-4-carboxamide] was tested, and the “CDMF75 IC15” value was 500 nM and the IC50 was 1500 nM.
For `CCc1nc(-c2ccc3c(c2)CC[C@H]3NC(=O)c2nonc2C)no1` [Compound 633, (R)-N-(5-(5-ethyl-1,2,4-oxadiazol-3-yl)-2,3-dihydro-1H-inden-1-yl)-4-methyl-1,2,5-oxadiazole-3-carboxamide], the “CDMF75 IC15” value was 200 nM and the IC50 was 800 nM.
`CCc1nc(-c2ccc3c(c2)CC[C@H]3NC(=O)c2cc(O)no2)no1` [Compound 634, (R)-N-(5-(5-ethyl-1,2,4-oxadiazol-3-yl)-2,3-dihydro-1H-inden-1-yl)-3-hydroxyisoxazole-5-carboxamide] was tested, and the “CDMF75 IC15” value was 500 nM and the IC50 was 2100 nM.
For `CCc1nc(-c2ccc3c(c2)CC[C@H]3NC(=O)c2cc(OC)no2)no1` [Compound 635, (R)-N-(5-(5-ethyl-1,2,4-oxadiazol-3-yl)-2,3-dihydro-1H-inden-1-yl)-3-methoxyisoxazole-5-carboxamide], the “CDMF75 IC15” value was 300 nM and the IC50 was 1100 nM.
With `CCc1nc(-c2ccc3c(c2)CC[C@H]3NC(=O)c2ncc(C)o2)no1` [Compound 636, (R)-N-(5-(5-ethyl-1,2,4-oxadiazol-3-yl)-2,3-dihydro-1H-inden-1-yl)-5-methyloxazole-2-carboxamide] the “CDMF75 IC15” value was 600 nM and the IC50 was 2200 nM.
For `CCc1nc(-c2ccc3c(c2)CC[C@H]3NC(=O)c2ccnnc2C)no1` [Compound 637, (R)-N-(5-(5-ethyl-1,2,4-oxadiazol-3-yl)-2,3-dihydro-1H-inden-1-yl)-3-methylpyridazine-4-carboxamide], the “CDMF75 IC15” value was 3100 nM and the IC50 was 11600 nM.
`CCc1nc(-c2ccc3c(c2)CC[C@H]3NC(=O)c2cnc(O)o2)no1` [Compound 638, (R)-N-(5-(5-ethyl-1,2,4-oxadiazol-3-yl)-2,3-dihydro-1H-inden-1-yl)-2-hydroxyoxazole-5-carboxamide] was tested, and the “CDMF75 IC15” value was 1000 nM and the IC50 was 3900 nM.
With `CCc1nc(-c2ccc3c(c2)CC[C@H]3NC(=O)c2ocnc2C(F)(F)F)no1` [Compound 639, (R)-N-(5-(5-ethyl-1,2,4-oxadiazol-3-yl)-2,3-dihydro-1H-inden-1-yl)-4-(trifluoromethyl)oxazole-5-carboxamide] the “CDMF75 IC15” value was 300 nM and the IC50 was 1100 nM.
For `CCc1nc(-c2ccc3c(c2)CC[C@H]3NC(=O)c2ncc(C)s2)no1` [Compound 640, (R)-N-(5-(5-ethyl-1,2,4-oxadiazol-3-yl)-2,3-dihydro-1H-inden-1-yl)-5-methylthiazole-2-carboxamide], the “CDMF75 IC15” value was 500 nM and the IC50 was 2100 nM.
In the case of `CCc1nc(-c2ccc3c(c2)CC[C@H]3NC(=O)c2ccc(=O)n(CC)c2)no1` [Compound 641, (R)-1-ethyl-N-(5-(5-ethyl-1,2,4-oxadiazol-3-yl)-2,3-dihydro-1H-inden-1-yl)-6-oxo-1,6-dihydropyridine-3-carboxamide], the “CDMF75 IC15” value is reported as 1400 nM and the IC50 is reported as 5700 nM.
With `CCc1nc(-c2ccc3c(c2)CC[C@H]3NC(=O)c2ccc(C)cn2)no1` [Compound 642, (R)-N-(5-(5-ethyl-1,2,4-oxadiazol-3-yl)-2,3-dihydro-1H-inden-1-yl)-5-methylpicolinamide] the “CDMF75 IC15” value was 1400 nM and the IC50 was 5800 nM.
With `CCc1nc(-c2ccc3c(c2)CC[C@H]3NC(=O)c2ncncc2C)no1` [Compound 643, (R)-N-(5-(5-ethyl-1,2,4-oxadiazol-3-yl)-2,3-dihydro-1H-inden-1-yl)-5-methylpyrimidine-4-carboxamide] the “CDMF75 IC15” value was 600 nM and the IC50 was 2100 nM.
`Cn1cc(C(=O)N[C@@H]2CCc3cc(-c4noc(C(F)F)n4)ccc32)ccc1=O` [Compound 644, (R)-N-(5-(5-(difluoromethyl)-1,2,4-oxadiazol-3-yl)-2,3-dihydro-1H-inden-1-yl)-1-methyl-6-oxo-1,6-dihydropyridine-3-carboxamide] was tested, and the “CDMF75 IC15” value was 1500 nM and the IC50 was 5900 nM.
In the case of `Cn1cc(C(=O)N[C@@H]2CCc3cc(-c4noc(C5CCC5)n4)ccc32)ccc1=O` [Compound 645, (R)-N-(5-(5-cyclobutyl-1,2,4-oxadiazol-3-yl)-2,3-dihydro-1H-inden-1-yl)-1-methyl-6-oxo-1,6-dihydropyridine-3-carboxamide], the “CDMF75 IC15” value is reported as 1600 nM and the IC50 is reported as 7000 nM.
In the case of `[2H]C([2H])([2H])c1nc(-c2ccc3c(c2)CC[C@H]3NC(=O)c2ccc(=O)n(C)c2)no1` [Compound 646, (R)-1-methyl-N-(5-(5-(methyl-d3)-1,2,4-oxadiazol-3-yl)-2,3-dihydro-1H-inden-1-yl)-6-oxo-1,6-dihydropyridine-3-carboxamide], the “CDMF75 IC15” value is reported as 2200 nM and the IC50 is reported as 9000 nM.
In the case of `CCc1nc(-c2ccc3c(c2)CC[C@H]3NC(=O)c2ccnc(Cl)c2)no1` [Compound 647, (R)-2-chloro-N-(5-(5-ethyl-1,2,4-oxadiazol-3-yl)-2,3-dihydro-1H-inden-1-yl)isonicotinamide], the “CDMF75 IC15” value is reported as 300 nM and the IC50 is reported as 900 nM.
For `CCc1nc(-c2ccc3c(c2)CC[C@H]3NC(=O)c2cccc(C(=O)OC)c2)no1` [Compound 648, Methyl (R)-3-((5-(5-ethyl-1,2,4-oxadiazol-3-yl)-2,3-dihydro-1H-inden-1-yl)carbamoyl)benzoate], the “CDMF75 IC15” value was 400 nM and the IC50 was 1300 nM.
In the case of `CCc1nc(-c2ccc3c(c2)CC[C@H]3NC(=O)c2cc(CO)ccc2F)no1` [Compound 649, (R)-N-(5-(5-ethyl-1,2,4-oxadiazol-3-yl)-2,3-dihydro-1H-inden-1-yl)-2-fluoro-5-(hydroxymethyl)benzamide], the “CDMF75 IC15” value is reported as 900 nM and the IC50 is reported as 3400 nM.
For `CCc1nc(-c2ccc3c(c2)CC[C@H]3NC(=O)c2cnnc(C)c2)no1` [Compound 650, (R)-N-(5-(5-ethyl-1,2,4-oxadiazol-3-yl)-2,3-dihydro-1H-inden-1-yl)-6-methylpyridazine-4-carboxamide], the “CDMF75 IC15” value was 600 nM and the IC50 was 2200 nM.
